One experiment addresses T1, human pancreatic lipase (Homo sapiens, UniProt P16233).
T1 sequence (P16233 17-465): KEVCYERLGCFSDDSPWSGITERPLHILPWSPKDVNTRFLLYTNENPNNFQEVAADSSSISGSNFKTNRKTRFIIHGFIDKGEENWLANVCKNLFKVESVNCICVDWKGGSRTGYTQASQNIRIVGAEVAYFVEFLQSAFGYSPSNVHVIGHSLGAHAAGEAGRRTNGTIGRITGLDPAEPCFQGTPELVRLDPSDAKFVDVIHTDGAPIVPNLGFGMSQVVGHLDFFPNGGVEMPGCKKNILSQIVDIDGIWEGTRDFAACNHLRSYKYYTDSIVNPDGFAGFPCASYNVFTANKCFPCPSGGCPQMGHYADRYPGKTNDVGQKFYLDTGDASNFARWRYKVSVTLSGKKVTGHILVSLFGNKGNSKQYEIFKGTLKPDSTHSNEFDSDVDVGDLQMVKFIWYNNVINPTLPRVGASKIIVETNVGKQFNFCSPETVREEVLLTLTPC
Nature of the experiment: lipase inhibition activity (USP units per mg). The experiment is classed as biochemical. The protocol: Polymerized catechins are prepared from fermented catechins. Tea catechins are incubated with polyphenol oxidase in a reaction tank for 60 to 120 minutes. The mixture is then extracted with ethyl acetate and dried. In particular embodiments, the extracts have at least 10 USP units human pancreatic lipase inhibition per mg.
LIPOTAME™, an exemplary polymerized catechin commercially available from NatureGen, has 11.62 USP units/mg of lipase inhibition activity, compared to 80 USP units/mg of lipase inhibition activity found in ORLISTAT®.

Experiment [1] has as its system sodium dependent glucose transporter. Particulars: in vitro study; cited from earlier work.

Molecules are shown by their SMILES.

`CCCCCCCCCCC[C@@H](C[C@@H]1OC(=O)[C@H]1CCCCCC)OC(=O)[C@H](CC(C)C)NC=O` [ORLISTAT®, Orlistat]: the lipase inhibition activity on human pancreatic lipase stood at 80 USP units/mg.
As for `O=C(O[C@@H]1Cc2c(O)cc(O)cc2O[C@@H]1c1ccc(O)c(O)c1)c1cc(O)c(O)c(O)c1` [Epicatechin gallate], the “inhibition of the glucose uptake through incubated intestinal membranes” value in experiment [1] is listed as “up to 50%”.

Values taken from patent US20070036874A1, “Compositions and methods for controlling glucose and lipid uptake from foods” (priority 2005, published 2007).
